Peptide text beside a SMILES is read from it.
Molecular target: neuraminidase (NA) (Influenza A virus (A/Hong Kong/1073/99(H9N2)), UniProt Q9ICY2)
Experiment: biochemical
Settings: read-out: % inhibition at 1000 μM

Compound `C[C@@H](O)[C@H](NC(=O)[C@H](CCCCN)NC(=O)[C@H](CO)NC(=O)[C@H](CCCNC(=N)N)NC(=O)[C@H](Cc1ccccc1)NC(=O)[C@H](CC(=O)O)NC(=O)[C@@H](N)CC(N)=O)C(=O)O` [L-P1, NDFRSKT] (H-NDFRSKT-OH) has an inhibition at 1000 µM of about 35%.

Reference: publication PMC2700090 (Virology Journal, 2009)
